The results in this text go back to a melting point compilation (Tetko et al.; mined from patent text by program, amines drawn as free bases though some values may be those of a salt).

Broadly, the melting point is the temperature, or range, at which the solid turns liquid. Turning to `O=C(OCc1ccccc1)c1ccc(C#Cc2ccccc2)cc1OCc1ccccc1`, the melting point lay within 98 to 100 °C.
Next, `CCCCCCCCCCCCc1cc(NC(=O)Nc2c(C(C)C)cccc2C(C)C)no1`: 101 to 107 °C; `CCOC(=O)c1c(CN(CC)CC)nc2cc(OC)c(OC)cc2c1-c1ccc(F)cc1`: 102 to 103 °C; `O=C1C2CCCCC2C2(c3ccccc3)NCCN12` (stereo unspecified): 170 °C.
To `O=C1CCC(Cc2ccccc2Cl)CC1` belongs 48 °C.
`CN(C)C=C(C=O)c1ccc(Cl)cc1` had a melting point of 117 to 120 °C.
For `C[C@H](O)[C@H](Cc1ccccc1)C(=O)NN`, the melting point came to 167 °C.
To `NS(=O)(=O)c1ccc(-c2nc(C(F)(F)F)[nH]c2-c2ccc(F)cc2)cc1` belongs 259 to 260 °C.
Next, `O=C(c1cccs1)C1(c2ccc(Cl)cc2)CCC1`: 74 to 76 °C; `CCc1nc(/C=C/c2cn(-c3ccccc3)nc2OCc2ccc(OCc3nc(-c4cccc([N+](=O)[O-])c4)oc3C)c(OC)c2)cs1`: 127 to 129 °C; `NS(=O)(=O)c1ccc(-c2cn(-c3nc(-c4ccc(F)cc4)cc(C(F)(F)F)n3)cn2)s1`: 244 °C.
To `Cn1nc(-c2ccccc2)cc1-c1ccccc1` belongs 52 to 53 °C; to `COc1cc(OC)cc(-c2nsnc(Cl)c2=O)c1`, 121 to 124 °C; to `CCc1c(N2CCC(N)CC2)c(F)cc2c(=O)c(C(=O)O)cn(C3CC3)c12`, 248 to 249 °C.
For `CCOC(=O)c1nn(Cc2cn(C(c3ccccc3)(c3ccccc3)c3ccccc3)cn2)c2cc(OC)c(OC)cc12`, the melting point fell in the range of 184 to 186 °C.
To `COc1cc(OC)c(-c2cccs2)cc1/C=C/C(=O)c1ccc(S(=O)(=O)Nc2nccs2)cc1` belongs 220 to 221 °C.
As to `COc1ccc(CN(C(=O)C2CCOc3c(O)cccc32)c2ccc(C(C)C)cc2)cn1` (stereo unspecified), the melting point was found to be 141 °C.
In the case of `CCOC(=O)CCc1cc(OCC(=O)O)nn1Cc1ccc(Cl)cc1Cl`, the melting point fell in the range of 129 to 131 °C.
As to `O=C(NC(=O)c1c(F)cccc1Cl)Nc1ccc(Cl)cn1`, the melting point was 210 to 215 °C.
Next, `CCCC1=C(C(=O)OCC)C(c2ccccc2Cl)c2cn(C)nc2N1` (stereo unspecified): 150 to 151 °C; `CCn1cnc(=O)c(-c2cccc(C(F)(F)F)c2)c1`: 172 to 173 °C.
As for `O=c1ccccn1[C@@H]1c2cc([N+](=O)[O-])ccc2OC(CF)(CF)[C@H]1O` (relative stereo), the melting point lay within 226 to 228 °C.
To `Oc1c(Br)c(Br)c(F)c(Br)c1Br` belongs 178 to 180 °C; to `Cc1c(O)ccc(S)c1C`, 98 to 99 °C; to `FC(F)(F)c1ccc(/C=C/c2nc(COc3ccc(CCCCn4ccnn4)cc3)co2)cc1`, 160 to 161 °C.
Next, `O=C(OCC12CCCN(CC1)C2)c1c[nH]c2ccccc12` (stereo unspecified): 184 to 185 °C.
Next, `O=[N+]([O-])c1ccc(CN(CCO)CCO)cc1`: 74 to 75 °C; `Clc1ccc(CSc2nnc(-c3ccc4occc4c3)o2)cc1`: 162 to 163 °C.
Molecule `CCOP(=O)(OCC)C(CCc1cc(C)nc2c(Br)c(-c3ccccc3)nn12)P(=O)(OCC)OCC` gave a melting point of 46 to 48 °C.
To `CN(C(=O)C(F)(F)F)C1(C)CN(c2nc3c(cc2F)c(=O)c(C(=O)O)cn3C(C)(C)C)C1` belongs 263 to 265 °C.
To `Cc1ccc(NC(=O)c2cc(Cl)ccc2NCC2CCN(C3CCSC3)CC2)nc1` (stereo unspecified) belongs 151 to 153 °C; to `Cc1cccc(C2=C(c3cn(C)c4ccccc34)C(=O)NC2=O)c1`, 243 °C; to `O=c1[nH]c2cc(Br)cc3c2n(c1=O)CC3`, greater than 300 °C.
To `CCNc1cc(C)nn1-c1c(Cl)cc(C(F)(F)F)cc1Cl` belongs 74 to 75 °C.
Molecule `CC1(C)CCC(C)(C)c2cc(NC(=O)c3ccc(C(=O)O)cc3O)ccc21` displayed a melting point of 286 to 287 °C.
`CC(C)(C)C(=O)Nc1ccc2oc3c(c2c1)CCC3` showed a melting point of 188 to 190 °C.
To `NCC1Cc2cc(-c3cccc(C(F)(F)F)c3)cc(F)c2O1` (stereo unspecified) belongs greater than 250 °C; to `COc1ccc(CN([C@@H](CO)c2ccccc2)S(=O)(=O)c2ccc(Cl)cc2)cc1C(=O)O`, 79 to 80 °C; to `COc1cc2c3c(n(Cc4ccccc4)c(=O)c2cc1OC)-c1cc2c(cc1C3=O)OCO2`, 310 to 312 °C.
Next, `O=c1oc(-c2ccc(Cl)c(Cl)c2)cc(O)c1SCc1ccccc1`: 185 to 186 °C; `CCCn1c(=O)c2[nH]c(C3CCCC3)nc2n(CCc2ccc(NC(=O)CC)cc2)c1=O`: greater than 270 °C.
The molecule `CCOC(=O)Nc1ccc2nc3ccccc3c(-c3cc(C)ccc3C)c2c1` gave a melting point of 200 to 202 °C.
Next, `COc1ccc(-c2ccc(C(=O)Nc3cccc(CC(=O)O)c3)o2)cc1`: 179 to 180 °C; `CC(CSC(=O)c1ccccc1)C(=O)N1Cc2ccccc2CC1C(=O)O` (stereo unspecified): 154 to 155 °C.
Next, `CC(C)(O)c1ccc(-c2cnc3c(n2)N(CC2CCOCC2)CC(=O)N3)cn1`: 268 to 269 °C.
To `OCC1OC(n2cnc3c(NCCc4cccs4)ncnc32)C(O)C1O` (stereo unspecified) belongs 153 to 154 °C.
Molecule `CCc1cc(=O)c2nc(OCC[Si](C)(C)C)ccc2[nH]1` showed a melting point of 193 °C.
For the molecule `COCc1cccc(-c2nn(C(C)c3oc4ccccc4c(=O)c3-c3cccc(F)c3)c3ncnc(N)c23)c1` (stereo unspecified), the melting point was 167 to 170 °C.
Next, `Cc1cc(C(C)(C)C)c(O)c(N)c1N`: 129 to 136 °C; `COc1cccc(-c2c(NC(=O)Nc3c(C(C)C)cccc3C(C)C)c(=O)n(CCOc3ccccc3)c3ncccc23)c1`: 168 to 170 °C.
Regarding `CC(C)C(=O)Oc1cc(-c2cn3c(n2)sc2ccccc23)cc([N+](=O)[O-])c1OC(=O)C(C)C`, the melting point fell in the range of 197 to 199 °C.
To `NC(c1ccccc1)c1ccc(O)cc1` (stereo unspecified) belongs 113 to 115 °C; to `CCN1C(=O)C(C)(C)N=C(c2ccccc2F)c2cc([N+](=O)[O-])cc(Cl)c21`, 156 °C; to `CC(=O)C(=CNc1cc(Cl)cc(C(=O)O)c1Cl)C(C)=O`, 244 to 246 °C.
`CCCNC(=O)C(C)Cc1ccc2cccc(Cc3ccc(C(=O)NS(=O)(=O)c4ccccc4C)cc3OC)c2c1` (stereo unspecified) displayed a melting point of 210 to 212 °C.
Consider `CCC1(N2C(=O)c3c(F)c(F)c(F)c(F)c3C2=O)C(=O)NC(=O)N(c2ccccc2)C1=O` (stereo unspecified), for which the melting point fell in the range of 218 to 220 °C.
`CN(c1ccccc1[N+](=O)[O-])S(C)(=O)=O`: the melting point was in the range of 144 to 145 °C.
To `c1cc(OCc2ccc3ccccc3n2)cc(OCc2ccccc2-c2nnn[nH]2)c1` belongs 166 to 170 °C.
To `CCCCCCCN(CCCCCSc1nc(-c2ccccc2)c(-c2ccccc2)[nH]1)C(=N)Nc1ccccc1` belongs 135 to 136 °C; to `CCCc1c(C(=O)C(C)C)c2ccc(C(=O)OC)cc2n1Cc1ccc(Br)cc1F`, 110 to 112 °C.
Turning to `CCCCCc1c(O)ccc2c1OCCC2=O`, the melting point lay within 132 to 134 °C.
`COc1ccc2c(c1)c(CCC(=O)O)cn2S(=O)(=O)c1ccc(C)cc1`: the melting point lay in the range of 172 to 174 °C.
To `CCn1cc(C(=O)NN)c(=O)c2ccc(-c3ccccc3)cc21` belongs 243 to 244 °C; to `COCCOc1ccc(CCNC(=O)c2cnc3ccccc3c2)cc1S(N)(=O)=O`, 170 °C; to `COc1cc2c(c(OC)c1)C1CCCCC1C(=O)C2` (stereo unspecified), 130 to 131 °C.
Next, `CCCN(c1ccncc1)N1C(=O)Cc2ccccc21`: 140 to 143 °C.
As to `O=C(O)c1ccc(-c2nc(-c3ccc(C(F)(F)F)cc3)no2)c([N+](=O)[O-])c1`, the melting point was 233 to 234 °C.
To `COc1cc(-c2c(-c3ccc(F)cc3)nc3ccc(N4CCN(C)CC4)nn23)ccn1` belongs 189 to 194 °C; to `CC1(C)CC(=O)Nc2ccc(N)cc21`, 126 to 130 °C.
Next, `CCOc1ccc(-c2nc(C(O)c3ccc(OC)c(OC)c3)cs2)cc1OCC` (stereo unspecified): 122 to 123 °C.
To `CCCc1c(COc2ccc(Cc3nnn(CC(=O)O)n3)cc2)ccc(C(C)=O)c1O` belongs 87 to 90 °C.
Take `COc1ccc(CS(=O)CC(=O)NO)cc1OC` (stereo unspecified): the melting point was found to be 202 °C.
Next, `COc1ccc(Cl)cc1NC(=O)C1CCNCC1`: 124 to 126 °C; `COc1ccc(C(=O)NCc2c(C=O)cc(C)n2CCNC(C)=O)cc1OC`: 165 to 167 °C; `O=C(O)c1cccc(-c2cc(-c3ccc(C(F)(F)F)cc3)no2)c1`: 272 to 273 °C.
For `CCOP(=O)(OCC)C(c1ccc2cc(O)ccc2c1)P(=S)(OCC)OCC` (stereo unspecified), the melting point was 85.5 to 86.5 °C.
To `COc1ccc(C2CCN(C)CC2)cc1Nc1ncc2ccc(-c3ccccc3N(C)S(C)(=O)=O)n2n1` belongs 93 to 99 °C; to `COC(=O)c1cc(N=C2C=CC(=O)C=C2)c(F)c(-c2ccc(Cl)cc2)n1`, 154 to 156 °C.
Next, `CC(C)c1ccc(-c2coc3cc(O)c(O)cc3c2=O)cc1`: 181 to 182 °C; `CC(=O)NC[C@H]1CN(c2ccc(N3CCC(c4noc(C)n4)CC3)c(F)c2)C(=O)O1`: 136 to 138 °C.
To `Nc1nc2c(s1)CCN(CC=Cc1cccc(O)c1)CC2` belongs 85 to 95 °C; to `CNC1Cc2ccc(C(=O)Cn3cnc4cc(-c5ccc(Cl)cc5)sc4c3=O)cc2C1` (stereo unspecified), 226 to 229 °C; to `CC(C)Oc1ccc(C(=O)n2nc(Nc3ccc(OCc4ccccc4)cc3)nc2N)cc1`, 79 to 81 °C.
`Cc1ccc(C(=O)Nc2ccc(N3CCNCC3)cc2)c(-c2ccc(C(C)C)cc2)c1` gave a melting point of 131 to 133 °C.
Next, `ON=Cc1ncc(-c2ccccc2)o1`: 208 to 210 °C; `O=C(O)c1ccccc1Sc1ccc(C(O)=NCc2ccccc2)c(C(=O)O)c1`: 289 to 294 °C.
